Legend:
[1] = system: phosphorylation of IRF3 in THP-1 cells (STING activation); test: Phosphorylation of IRF3: THP-1 cell ELISA; type: cell-based; conditions: Homo sapiens, 3 hours incubation, read-out: THP-1 CELL P-IRF3 EC50
Method: Phosphorylation of IRF3: THP-1 cell ELISA
STING activation results in recruitment of TBK1 and phosphorylation of IRF3 transcription factor before induction of type I interferons. THP-1 cells (InvivoGen) were grown in RPMI media plus 2 mM L-glutamine, 10% fetal bovine serum, and 0.5% Pen-Strep. 10^4 cells were seeded in 96-well plates and incubated overnight […]. Compounds serial diluted compounds in media (final 0.5% DMSO) were added to the cells and incubated for an additional 3 hours. After incubation, the plates were centrifuged at 2000 rpm for 5 min. The cells were then lysed in 100 μl RIPA buffer and vortexed for 30 minutes at room temperature. 25 μl of lysate was then transferred to clear polystyrene High Bind plates that had been previously coated with mouse anti-human IRF-3 capture antibody (BD Pharmigen), and allowed to incubate at 4° C. for 16 hours. The plates were then washed and incubated with rabbit anti-phospho-IRF3 detection antibody (Cell Signaling Technologies) for 1.5 hours at room temperature. Finally, an HRP-linked secondary antibody (Cell Signaling Technologies) was added for 30 min before the Glo Substrate Reagent (R&D Systems) was used generate the luminescent signal. The signal was measured using a Perkin-Elmer Envision microplate reader. Data were normalized to “% effect” with a positive control STING agonist that was known to maximize the phosphorylated IRF3 signal and the negative control was DMSO.

[2] = system: THP-1 Lucia ISG cells (IRF-inducible Lucia luciferase reporter); test: Interferon-β induction: THP-1 ISG reporter cell line; type: cell-based; conditions: THP1-Lucia ISG, 24 hours incubation, read-out: THP-1 Lucia ISG Cells IFN-β EC50
Method: Interferon-β Induction: THP-1 ISG Reporter Cell Line
THP-1 Lucia™ ISG cells (InvivoGen) express the secreted luciferase “Lucia” reporter gene under the control of an IRF-inducible composite promotor comprised of five interferon response elements. THP-1 Lucia™ ISG cells were grown in RPMI media plus 2 mM L-glutamine, 10% fetal bovine serum, and 0.5% Pen-Strep. Hygromycin B and Zeocin were present to maintain stable transfection. 10^4 cells were seeded in 96-well plates and incubated overnight 37° C., 5% CO2. 50 μL of serial diluted compounds in media (final 0.5% DMSO) was and incubated for an additional 24 hours. After incubation, the plates were centrifuged at 2000 rpm for 10 min. 50 μl of cell culture supernatant of each well was transferred to a white, opaque 96-well plate. One pouch of QUANTI-Luc™ (InvivoGen) powder was prepared in 25 mL of endotoxin-free water and 100 μL of prepared warm QUANTI-Luc solution were added to each well containing the supernatant. The luminescence signal was measured using a Perkin-Elmer Envision microplate reader. Data were normalized to “% effect” with a positive control STING agonist that was known to maximize the luciferase signal and the negative control DMSO.

R232-STING = R232-STING (Homo sapiens (Human), UniProt Q86WV6, H232R); conditions: read-out: R232-STING SPA-IC50 Ki; STING residues 155-341, 100 nM 3H-cGAMP; KI from IC50 with Cheng-Prusoff equation
R232-STING, sequence (Q86WV6 155-341 H232R): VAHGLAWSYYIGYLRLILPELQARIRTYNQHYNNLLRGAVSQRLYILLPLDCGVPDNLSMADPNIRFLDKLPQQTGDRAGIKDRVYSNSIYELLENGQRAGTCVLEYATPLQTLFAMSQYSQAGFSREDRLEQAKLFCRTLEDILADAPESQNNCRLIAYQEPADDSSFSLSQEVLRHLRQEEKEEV

Row | Compound | EC50 [1] | EC50 [2] | Ki (R232-STING)
1 | CCCn1nc(C)c(O)c1-c1cn(C)c(-c2nc(C(N)=O)cc3c2cnn3C)n1 [AIF11, 4-[4-(4-hydroxy-3-methyl-1-propyl-1H-pyrazol-5-yl)-1-methyl-1H-imidazol-2-yl]-1-methyl-1H-pyrazolo[4,3-c]pyridine-6-carboxamide] | 10 nM | < 10 nM | 0.3 nM
2 | CCn1nc(C)c(F)c1-c1cn(C)c(-c2nc(C(N)=O)cc3c2cnn3C)n1 [AIF12, 4-[4-(1-ethyl-4-fluoro-3-methyl-1H-pyrazol-5-yl)-1-methyl-1H-imidazol-2-yl]-1-methyl-1H-pyrazolo[4,3-c]pyridine-6-carboxamide] | 310 nM | 370 nM | 2.4 nM
3 | CCn1cc(-c2c(O)c(C)nn2CC)nc1-c1nc(C(N)=O)cc2c1cnn2C [AIF13, 4-[1-ethyl-4-(1-ethyl-4-hydroxy-3-methyl-1H-pyrazol-5-yl)-1H-imidazol-2-yl]-1-methyl-1H-pyrazolo[4,3-c]pyridine-6-carboxamide] | 250 nM | 160 nM | 2.9 nM
4 | Cc1cc(-c2cn(C)c(-c3nc(C(N)=O)cc4c3cnn4C)n2)n(CCCC(F)F)n1 [AIF14, 4-{4-[1-(4,4-difluorobutyl)-3-methyl-1H-pyrazol-5-yl]-1-methyl-1H-imidazol-2-yl}-1-methyl-1H-pyrazolo[4,3-c]pyridine-6-carboxamide] | 1370 nM | 1320 nM | 28.2 nM
5 | Cc1cc(-c2cn(C)c(-c3nc(C(N)=O)cc4c3cnn4C)n2)n(CCCC#N)n1 [AIF15, 4-{4-[1-(3-cyanopropyl)-3-methyl-1H-pyrazol-5-yl]-1-methyl-1H-imidazol-2-yl}-1-methyl-1H-pyrazolo[4,3-c]pyridine-6-carboxamide] | 1350 nM | 1830 nM | 46.6 nM
6 | Cc1cc(-c2cn(C)c(-c3nc(C(N)=O)cc4c3cnn4C)n2)n(C)n1 [AIH02, 4-[4-(1,3-dimethyl-1H-pyrazol-5-yl)-1-methyl-1H-imidazol-2-yl]-1-methyl-1H-pyrazolo[4,3-c]pyridine-6-carboxamide] | 4300 nM | 2560 nM | 22.7 nM
7 | CCCn1nccc1-c1cn(C)c(-c2nc(C(N)=O)cc3c2cnn3C)n1 [AIH03, 1-methyl-4-[1-methyl-4-(1-propyl-1H-pyrazol-5-yl)-1H-imidazol-2-yl]-1H-pyrazolo[4,3-c]pyridine-6-carboxamide] | 6580 nM | 6260 nM | 148 nM
8 | Cn1cc(-c2ccnn2C)nc1-c1nc(C(N)=O)cc2c1cnn2C [AIH04, 1-methyl-4-[1-methyl-4-(1-methyl-1H-pyrazol-5-yl)-1H-imidazol-2-yl]-1H-pyrazolo[4,3-c]pyridine-6-carboxamide] | > 10000 nM | > 10000 nM | 151 nM
9 | CCn1nccc1-c1cn(C)c(-c2nc(C(N)=O)cc3c2cnn3C)n1 [AIH05, 4-[4-(1-ethyl-1H-pyrazol-5-yl)-1-methyl-1H-imidazol-2-yl]-1-methyl-1H-pyrazolo[4,3-c]pyridine-6-carboxamide] | > 10000 nM | > 10000 nM | 93.3 nM
10 | COCCCn1nc(C)cc1-c1cn(C)c(-c2nc(C(N)=O)cc3c2cnn3C(F)F)n1 [AIN02, 1-(difluoromethyl)-4-{4-[1-(3-methoxypropyl)-3-methyl-1H-pyrazol-5-yl]-1-methyl-1H-imidazol-2-yl}-1H-pyrazolo[4,3-c]pyridine-6-carboxamide] | 990 nM | 1200 nM | 20.9 nM
11 | COCCCn1nc(C)cc1-c1cn(C)c(-c2nc(C(N)=O)cc3c2cnn3CF)n1 [AIN03, 1-(fluoromethyl)-4-{4-[1-(3-methoxypropyl)-3-methyl-1H-pyrazol-5-yl]-1-methyl-1H-imidazol-2-yl}-1H-pyrazolo[4,3-c]pyridine-6-carboxamide] | 680 nM | 850 nM | 12.8 nM
12 | CCn1nc(C)c(O)c1-c1cn(C)c(-c2nc(C(N)=O)cc3c2cnn3CC)n1 [AIN04, 1-ethyl-4-[4-(1-ethyl-4-hydroxy-3-methyl-1H-pyrazol-5-yl)-1-methyl-1H-imidazol-2-yl]-1H-pyrazolo[4,3-c]pyridine-6-carboxamide] | 370 nM | 310 nM | 2.9 nM
13 | CCn1nc(C)cc1-c1cn(CCOC)c(-c2nc(C(N)=O)cc3c2cnn3C)n1 [AIP04, 4-[4-(1-ethyl-3-methyl-1H-pyrazol-5-yl)-1-(2-methoxyethyl)-1H-imidazol-2-yl]-1-methyl-1H-pyrazolo[4,3-c]pyridine-6-carboxamide] | 1140 nM | 1240 nM | 35.2 nM
14 | CCn1nc(C)cc1-c1cn(C)c(-c2nc(C(N)=O)cc3c2cnn3C)n1 [Example AIA01, 4-[4-(1-ethyl-3-methyl-1H-pyrazol-5-yl)-1-methyl-1H-imidazol-2-yl]-1-methyl-1H-pyrazolo[4,3-c]pyridine-6-carboxamide] | 670 nM | 820 nM | 10.7 nM
15 | CCn1nc(C)cc1-c1cn(C)c(-c2nc(C(N)=O)cc3c2cnn3CC)n1 [Example AIC01, 1-ethyl-4-[4-(1-ethyl-3-methyl-1H-pyrazol-5-yl)-1-methyl-1H-imidazol-2-yl]-1H-pyrazolo[4,3-c]pyridine-6-carboxamide] | 1260 nM | 1170 nM | 12.1 nM
16 | CCc1nc(C)cn1-c1cn(C)c(-c2nc(C(N)=O)cc3c2cnn3C)n1 [Example AID01, 4-(2-ethyl-1′,4-dimethyl-1′H-[1,4′-biimidazol]-2′-yl)-1-methyl-1H-pyrazolo[4,3-c]pyridine-6-carboxamide] | 6420 nM | 6310 nM | 87.5 nM
17 | Cc1cc(-c2cn(C)c(-c3nc(C(N)=O)cc4c3cnn4C)n2)n(CCCO)n1 [Example AIE01, 4-{4-[1-(3-hydroxypropyl)-3-methyl-1H-pyrazol-5-yl]-1-methyl-1H-imidazol-2-yl}-1-methyl-1H-pyrazolo[4,3-c]pyridine-6-carboxamide] | 200 nM | 220 nM | 3.6 nM
18 | CCCn1nc(C)cc1-c1cn(C)c(-c2nc(C(N)=O)cc3c2cnn3C)n1 [Example AIF01, 1-methyl-4-[1-methyl-4-(3-methyl-1-propyl-1H-pyrazol-5-yl)-1H-imidazol-2-yl]-1H-pyrazolo[4,3-c]pyridine-6-carboxamide] | 500 nM | 540 nM | 9.8 nM
19 | CCn1nc(C)cc1-c1cn(C)c(-c2nc(C(N)=O)nc3c2cnn3C)n1 [Example AIG01, 4-[4-(1-ethyl-3-methyl-1H-pyrazol-5-yl)-1-methyl-1H-imidazol-2-yl]-1-methyl-1H-pyrazolo[3,4-d]pyrimidine-6-carboxamide] | > 10000 nM | > 10000 nM | 81.8 nM
20 | CCn1ncc2c(-c3nc(-c4cc(C)nn4CCCO)cn3C)nc(C(N)=O)cc21 [Example AIJ01, 1-ethyl-4-{4-[1-(3-hydroxypropyl)-3-methyl-1H-pyrazol-5-yl]-1-methyl-1H-imidazol-2-yl}-1H-pyrazolo[4,3-c]pyridine-6-carboxamide] | 400 nM | 450 nM | 10.2 nM
21 | CCn1cc(-c2cc(C)nn2CCCOC)nc1-c1nc(C(N)=O)cc2c1cnn2C [Example AIK01, 4-{1-ethyl-4-[1-(3-methoxypropyl)-3-methyl-1H-pyrazol-5-yl]-1H-imidazol-2-yl}-1-methyl-1H-pyrazolo[4,3-c]pyridine-6-carboxamide] | 330 nM | 430 nM | 15.2 nM
22 | Cc1cc(-c2cn(C)c(-c3nc(C(N)=O)cc4c3cnn4C)n2)n(CCCOC(F)F)n1 [Example AIL01, 4-(4-{1-[3-(difluoromethoxy)propyl]-3-methyl-1H-pyrazol-5-yl}-1-methyl-1H-imidazol-2-yl)-1-methyl-1H-pyrazolo[4,3-c]pyridine-6-carboxamide] | 530 nM | 530 nM | 24.6 nM
23 | COCCCn1nc(C)cc1-c1cn(C)c(-c2nc(C(N)=O)cc3c2cnn3C2CC2)n1 [Example AIN01, 1-cyclopropyl-4-{4-[1-(3-methoxypropyl)-3-methyl-1H-pyrazol-5-yl]-1-methyl-1H-imidazol-2-yl}-1H-pyrazolo[4,3-c]pyridine-6-carboxamide] | 730 nM | 800 nM | 4.6 nM

— patent US11964978B2, “Modulators of STING (stimulator of interferon genes)” (PFIZER INC., priority 2021, dated 2024)
